Values quoted from earlier work, collected in patent US20200009266A1, “IN VIVO GENE THERAPY FOR IMMUNE DEFICIENCIES” (priority 2017, published 2020).

Columns and labels:
circulating CD34+ cells = conditions: AMD3100 alone, adult dogs
[1] = tested on: peripheral blood lymphocytes; conditions: rhesus macaques

Compound: c1cc(CN2CCCNCCNCCCNCC2)ccc1CN1CCCNCCNCCCNCC1 [AMD3100]
- time of peak mobilization post treatment (circulating CD34+ cells): 8 to 10 h
- tolerability of treatment (circulating CD34+ cells): well tolerated
- lymphocyte numbers in peripheral blood [1]: increased numbers of B and T lymphocytes
